The subject of experiment [1] is EoL-1-cell. Kind of experiment: Cytotoxicity assay (CellTiterGlo, 72 hours treatment), EoL-1. It is filed as cell-based, Human. The settings on record: EoL-1 acute myeloid leukemia cells, ATP determination, read-out: Cell line IC50 EoL-1-cell. As to the method: (§1) Cell Lines and Cell Cultures
(§2) All cell lines were seeded at a density ranging from 2,400 to 8,000 cells/well in 384-well cell culture microplates and incubated at […] in a humidified 5% […] atmosphere 24 hours before treatment. Compound solutions were directly administered to the cells using the D300e digital dispenser (Tecan) to obtain scalar final concentrations ranging from 5 nM to 10 μM (duplicate wells for each point), with 80 uL final volume per well. The final DMSO concentration in test wells was adjusted to 0.1% (v/v); control wells were mock-treated and contained the same final concentration of DMSO.
(§3) Cell viability was determined after 72 hours treatment by ATP determination in each test well with a luciferase-based detection system (CellTiterGlo, Promega, Madison, WI, USA), following manufacturer's instructions. The intensity of emitted light was measured using an EnVision reader (PerkinElmer, Waltham, MA USA) and expressed as RLU. One to three independent experiments were performed for each cell line, as indicated.
(§4) Analysis of Antiproliferative Data
(§5) Cell growth inhibitory activity was evaluated comparing treated versus control data using the Assay Explorer software suite (Symix Technologies Inc.). IC50s values were calculated by sigmoidal fitting interpolation using the following quadriparametric Hill equation: […]
(§6) The Top, Bottom and Hill slope parameters were left free to assume any value, but only curves whose Hill slope had values between 0.5 and 4 were arbitrarily considered acceptable and used to calculate the average IC50s. Curves too steep (HillSlope≥4) or too slight (HillSlope≤0.5) were not included (Table C).
A general note: Cellular ATP, detected with luciferase, serves as a proxy for viable cell number.

Experiment [2] concerns MOLM-13. The experiment is described as follows: Cytotoxicity assay (CellTiterGlo, 72 hours treatment), MOLM-13. The class given is cell-based, Human. To be noted: MOLM-13 acute myeloid leukemia cells, ATP determination, read-out: Cell line IC50 MOLM-13. As to the method: as §1, §2, §3, §4, §5, §6
For experiment [3], the system named is NB-4. Kind of experiment: Cytotoxicity assay (CellTiterGlo, 72 hours treatment), NB-4. To be noted: NB-4 acute myeloid leukemia cells, ATP determination, read-out: Cell line IC50 NB-4. The class given is cell-based, Human. How it is done:
as §1, §2, §3, §4, §5, §6

The target of experiment [4] is T1, CDK11A (Homo sapiens, UniProt Q9UQ88).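 Further: compound preincubated 30 min with CDK11A-p58, then probe added and polarization (mP) read 15 min later, 0% displacement is probe plus enzyme, 100% is probe alone.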
T1 sequence (Q9UQ88 346-783): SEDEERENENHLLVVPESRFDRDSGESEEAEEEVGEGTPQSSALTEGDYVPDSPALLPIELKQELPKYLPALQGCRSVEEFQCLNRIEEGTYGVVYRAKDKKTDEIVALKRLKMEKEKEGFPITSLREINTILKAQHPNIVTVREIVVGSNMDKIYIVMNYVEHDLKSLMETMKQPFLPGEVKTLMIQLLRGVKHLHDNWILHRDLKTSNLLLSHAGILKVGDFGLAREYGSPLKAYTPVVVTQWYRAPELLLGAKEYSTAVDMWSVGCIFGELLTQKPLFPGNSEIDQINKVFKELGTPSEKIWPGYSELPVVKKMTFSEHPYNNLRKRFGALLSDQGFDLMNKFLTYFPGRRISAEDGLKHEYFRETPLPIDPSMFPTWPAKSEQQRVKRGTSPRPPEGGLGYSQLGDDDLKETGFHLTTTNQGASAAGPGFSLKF
The settings on record: displacement of SNS-032-Atto590 probe (0.002 μM) from CDK11A-p58 (0.032 uM), fluorescence polarization. On the technique in general: In fluorescence polarisation assays a small probe gives low polarisation when free and higher when bound to something large.

Structures are written as SMILES. Where a name gives a salt, the structure may show the parent alone. Read-outs that look alike come from different tables or passages of the source.

Among the data in patent US20250206724A1, “SUBSTITUTED 3-AMINO INDAZOLE DERIVATIVES AS KINASE INHIBITORS” (NERVIANO MEDICAL SCIENCES S.R.L., priority 2022, published 2025) are IC50 and DC50 values, retold here.

The term IC50 denotes the point on the concentration scale where inhibition reaches its midpoint.

Consider `N#Cc1ccc(Cl)c(-c2ccc3[nH]nc(NC(=O)[C@@H]4CCC5(CCCC5)NC4)c3c2)c1` (single isomer, unassigned) [compound 204, (8+)-N-[5-(2-Chloro-5-cyanophenyl)-1H-indazol-3-yl]-6-azaspiro[4.5]decane-8-carboxamide hydrochloride], for which the IC50 in experiment [1] (Homo sapiens, EOL1, 72 h) amounted to 237 nM; in experiment [2] (Homo sapiens, MOLM-13, 72 h), 194 nM; in experiment [3] (Homo sapiens, NB-4, 72 h) it was 211 nM. Besides, the DC50 in experiment [4] was 30 nM.

As for `N#Cc1ccc(Cl)c(-c2ccc3[nH]nc(NC(=O)[C@@H]4CCC5(CCCCC5)NC4)c3c2)c1` (single isomer, unassigned) [compound 206, (3+)-N-[5-(2-Chloro-5-cyanophenyl)-1H-indazol-3-yl]-1-azaspiro[5.5]undecane-3-carboxamide], the IC50 is 180 nM in experiment [1] (Homo sapiens, EOL1, 72 h); 194 nM in experiment [2] (Homo sapiens, MOLM-13, 72 h); 205 nM in experiment [3] (Homo sapiens, NB-4, 72 h). In experiment [4], this compound registered a DC50 of 23 nM.

Take `CC1(C)CCC(C(=O)Nc2n[nH]c3ccc(-c4cc(C#N)ccc4Cl)cc23)CN1` (single isomer, unassigned; (+)) [compound 202, (+)-N-[5-(2-Chloro-5-cyanophenyl)-1H-indazol-3-yl]-6,6-dimethylpiperidine-3-carboxamide]: the IC50 came to 73 nM in experiment [1], 77 nM in experiment [2] and 56 nM in experiment [3]. In experiment [4], this compound registered a DC50 of 15 nM.

Take `CC1(C)CCC(C(=O)Nc2n[nH]c3ccc(-c4cc(C#N)ccc4Cl)cc23)CN1` (single isomer, unassigned; (-)) [compound 203, (−)-N-[5-(2-Chloro-5-cyanophenyl)-1H-indazol-3-yl]-6,6-dimethylpiperidine-3-carboxamide]: the IC50 worked out at 1250 nM in experiment [1], 1380 nM in experiment [2] and 1320 nM in experiment [3]. The compound further came in with a DC50 in experiment [4] of 181 nM.

Take `CNC1CC(C(=O)Nc2n[nH]c3ccc(-c4c(Cl)cccc4Cl)cc23)C1` (stereo not shown) [compound 145, N-[5-(2,6-Dichlorophenyl)-1H-indazol-3-yl]-3-(methylamino)cyclobutanecarboxamide hydrochloride]: the IC50 in experiment [1] (Homo sapiens, EOL1, 72 h) turned out to be 663 nM; in experiment [2] (Homo sapiens, MOLM-13, 72 h), 483 nM; in experiment [3] (Homo sapiens, NB-4, 72 h) it was 520 nM. Also, the DC50 in experiment [4] was 44 nM.

As for `CCNC1CC(C(=O)Nc2n[nH]c3ccc(-c4cc(C#N)ccc4Cl)cc23)C1` (stereo not shown) [compound 152, N-[5-(2-Chloro-5-cyanophenyl)-1H-indazol-3-yl]-3-(ethylamino)cyclobutanecarboxamide hydrochloride], the IC50 was found to be 191 nM in experiment [1] (Homo sapiens, EOL1, 72 h); 203 nM in experiment [2] (Homo sapiens, MOLM-13, 72 h); 226 nM in experiment [3] (Homo sapiens, NB-4, 72 h). For the same compound, the DC50 in experiment [4] was found to be 31 nM.

Take `O=C(Nc1n[nH]c2ccc(-c3c(Cl)cccc3Cl)cc12)C1CCCNC1` (stereo not shown) [compound 157, N-[5-(2,6-Dichlorophenyl)-1H-indazol-3-yl]piperidine-3-carboxamide hydrochloride]: the IC50 turned out to be 590 nM in experiment [1] (Homo sapiens, EOL1, 72 h); 521 nM in experiment [2] (Homo sapiens, MOLM-13, 72 h); 512 nM in experiment [3] (Homo sapiens, NB-4, 72 h). In addition, the DC50 in experiment [4] was found to be 59 nM.

In the case of `O=C(Nc1n[nH]c2ccc(-c3c(F)cccc3Cl)cc12)C1CCCNC1` (stereo not shown) [compound 165, N-[5-(2-Chloro-6-fluorophenyl)-1H-indazol-3-yl]piperidine-3-carboxamide hydrochloride], the 50% inhibitory concentration (IC50) was 484 nM in experiment [1] (Homo sapiens, EOL1, 72 h); 463 nM in experiment [2] (Homo sapiens, MOLM-13, 72 h); 629 nM in experiment [3] (Homo sapiens, NB-4, 72 h). The compound further showed a DC50 in experiment [4] of 36 nM.

Take `O=C(Nc1n[nH]c2ccc(-c3c(Cl)cccc3Cl)cc12)[C@@H]1CCNC1` [compound 167, (3R)-N-[5-(2,6-Dichlorophenyl)-1H-indazol-3-yl]pyrrolidine-3-carboxamide hydrochloride]: the IC50 in experiment [1] (Homo sapiens, EOL1, 72 h) amounted to 651 nM; in experiment [2] (Homo sapiens, MOLM-13, 72 h), 610 nM; in experiment [3] (Homo sapiens, NB-4, 72 h), 525 nM. In experiment [4], this compound yielded a DC50 of 27 nM.

With `O=C(Nc1n[nH]c2ccc(-c3c(Cl)cccc3Cl)cc12)[C@@H]1CCCNC1` [compound 169, (3R)-N-[5-(2,6-Dichlorophenyl)-1H-indazol-3-yl]piperidine-3-carboxamide hydrochloride], the IC50 was 281 nM in experiment [1] (Homo sapiens, EOL1, 72 h); 219 nM in experiment [2] (Homo sapiens, MOLM-13, 72 h); 317 nM in experiment [3] (Homo sapiens, NB-4, 72 h). Besides, the DC50 in experiment [4] amounted to 21 nM.

Turning to `N#Cc1ccc(Cl)c(-c2ccc3[nH]nc(NC(=O)C4CCCNC4)c3c2)c1` (stereo not shown) [compound 171, N-[5-(2-Chloro-5-cyanophenyl)-1H-indazol-3-yl]piperidine-3-carboxamide hydrochloride], the IC50 in experiment [1] (Homo sapiens, EOL1, 72 h) came to 332 nM; in experiment [2] (Homo sapiens, MOLM-13, 72 h), 520 nM; in experiment [3] (Homo sapiens, NB-4, 72 h), 416 nM. Also, the DC50 in experiment [4] came out at 28 nM.

As to `N#Cc1ccc(Cl)c(-c2ccc3[nH]nc(NC(=O)[C@@H]4CCCNC4)c3c2)c1` [compound 174, (3R)-N-[5-(2-Chloro-5-cyanophenyl)-1H-indazol-3-yl]piperidine-3-carboxamide hydrochloride], the IC50 stood at 165 nM in experiment [1] (Homo sapiens, EOL1, 72 h); 190 nM in experiment [2] (Homo sapiens, MOLM-13, 72 h); 171 nM in experiment [3] (Homo sapiens, NB-4, 72 h). This compound yielded a DC50 in experiment [4] of 23 nM.

Compound `CN1CCC(C(=O)Nc2n[nH]c3ccc(-c4cc(C(N)=O)ccc4Cl)cc23)CC1` [cpd 117, N-[5-(5-Carbamoyl-2-chlorophenyl)-1H-indazol-3-yl]-1-methylpiperidine-4-carboxamide trifluoroacetate] came in with a DC50 in experiment [4] of 153 nM.

`CN1CCC(C(=O)Nc2n[nH]c3ccc(-c4ccc(C=O)cc4F)cc23)CC1` [cpd 118, N-[5-(2-Fluoro-4-formylphenyl)-1H-indazol-3-yl]-1-methylpiperidine-4-carboxamide hydrochloride] yielded a DC50 in experiment [4] of 467 nM.

For `Cc1ccc(-c2ccc3[nH]nc(NC(=O)C4CCN(C)CC4)c3c2)c(F)c1` [cpd 119, N-[5-(2-Fluoro-4-methylphenyl)-1H-indazol-3-yl]-1-methylpiperidine-4-carboxamide hydrochloride], the DC50 in experiment [4] worked out at 665 nM.

Take `COc1cc(F)c(-c2ccc3[nH]nc(NC(=O)C4CCN(C)CC4)c3c2)c(F)c1` [cpd 120, N-[5-(2,6-Difluoro-4-methoxyphenyl)-1H-indazol-3-yl]-1-methylpiperidine-4-carboxamide hydrochloride]: the DC50 in experiment [4] stood at 619 nM.

With `CC(C)(C)COC(=O)n1nc(NC(=O)[C@@H]2CCCNC2)c2cc(-c3cc(C#N)ccc3Cl)ccc21` [cpd 212, 2,2-Dimethylpropyl 5-(2-chloro-5-cyanophenyl)-3-{[(3R)-piperidin-3-ylcarbonyl]amino}-1H-indazole-1-carboxylate hydrochloride], in experiment [4], the DC50 was 821 nM.

`O=C(Nc1n[nH]c2ccc(OCCF)cc12)[C@@H]1CCCNC1` [cpd 227, (3R)-N-[5-(2-Fluoroethoxy)-1H-indazol-3-yl]piperidine-3-carboxamide hydrochloride]: the DC50 in experiment [4] worked out at 71 nM.

In turn, `COCCOc1ccc2[nH]nc(NC(=O)[C@@H]3CCCNC3)c2c1` [cpd 228, (3R)-N-[5-(2-Methoxyethoxy)-1H-indazol-3-yl]piperidine-3-carboxamide hydrochloride] showed a DC50 in experiment [4] of 406 nM.

As to `CCOc1ccc2[nH]nc(NC(=O)[C@@H]3CCCNC3)c2c1` [cpd 229, (3R)-N-(5-Ethoxy-1H-indazol-3-yl)piperidine-3-carboxamide hydrochloride], the DC50 in experiment [4] came to 20 nM.

For the compound `CC(C)Oc1ccc2[nH]nc(NC(=O)[C@@H]3CCCNC3)c2c1` [cpd 230, (3R)-N-[5-(Propan-2-yloxy)-1H-indazol-3-yl]piperidine-3-carboxamide hydrochloride], the DC50 in experiment [4] was 27 nM.

Take `CCCCOc1ccc2[nH]nc(NC(=O)[C@@H]3CCCNC3)c2c1` [cpd 231, (3R)-N-(5-Butoxy-1H-indazol-3-yl)piperidine-3-carboxamide hydrochloride]: in experiment [4], the DC50 came out at 71 nM.
